Columns and labels:
[1] = test system: ELIC aliphatic-to-aromatic mutants at the M4-M1/M3 interface; conditions: Fig. S4
[2] = test system: GLIC aromatic-to-Ala mutants at the M4-M1/M3 interface; conditions: Fig. S4
[3] = test system: human muscle-type nAChR C418W; assay type: cell-based; conditions: C418W relative to wild type
ELIC I319F/V260Y = ELIC I319F/V260Y (Dickeya chrysanthemi, UniProt P0C7B7, I319F/V260Y); assay type: cell-based; conditions: read-out: EC50, concentration of cysteamine to elicit half maximal channel gating; ELIC I319F/V260Y double mutant, oocytes
ELIC G318F/V260Y = ELIC G318F/V260Y (Dickeya chrysanthemi, UniProt P0C7B7, G318F/V260Y); assay type: cell-based; conditions: read-out: EC50, concentration of cysteamine to elicit half maximal channel gating; ELIC G318F/V260Y double mutant, oocytes
wild type ELIC = wild type ELIC (Dickeya chrysanthemi, UniProt P0C7B7); assay type: cell-based; conditions: read-out: EC50, concentration of cysteamine to elicit half maximal channel gating, oocytes, whole cell currents
[4] = test system: ELIC with the entire aromatic network of GLIC; assay type: cell-based; conditions: read-out: EC50, concentration of cysteamine to elicit half maximal channel gating, oocytes
ELIC L308W = ELIC L308W (Dickeya chrysanthemi, UniProt P0C7B7, L308W); assay: Two-electrode voltage clamp dose response to cysteamine, ELIC L308W mutant; assay type: cell-based

Structure (SMILES): CC(C)c1cccc(C(C)C)c1O [propofol, 2,6 diisopropylphenol]
- effect of aliphatic-to-aromatic substitutions on propofol inhibition [1]: None of the aromatic-to-Ala substitutions at the M4-M1/M3 interface of GLIC or the aliphatic-to-aromatic substitutions at the same interface in ELIC, however, had a major effect on propofol inhibition
- effect of aromatic-to-Ala substitutions on propofol inhibition [2]: None of the aromatic-to-Ala substitutions at the M4-M1/M3 interface of GLIC or the aliphatic-to-aromatic substitutions at the same interface in ELIC, however, had a major effect on propofol inhibition

Structure (SMILES): CC(=O)OCC[N+](C)(C)C [acetylcholine]
- potentiation of nAChR channel function by C418W (EC50 wild type vs C418W) [3]: roughly 25 fold

Structure (SMILES): NCCS [cysteamine]
- EC50 (ELIC I319F/V260Y): 130 µM
- EC50 (ELIC G318F/V260Y): 130 µM
- EC50 (wild type ELIC): 940 ± 160 µM
- EC50 [4]: 150 ± 40 µM
- magnitude of the L308W gain of function relative to the wild type ELIC (ELIC L308W; L308W relative to wild type ELIC): ~5 fold
- EC50 (ELIC L308W; read-out: EC50, concentration of cysteamine to elicit half maximal channel gating, ELIC L308W, oocytes): 290 ± 50 µM

— publication PMC4824752 (Structure (London, England : 1993), 2015)
